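Where inhibition never reached the appropriate level, the endpoint shown equals the highest concentration tested. Otherwise, values were interpolated linearly from a five-concentration, 48-hour dose response in 96-well plates. GI50: concentration for 50% inhibition of growth.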 Activity calls are given as the source filed them. No stated cut-off is given here; in the data, active = GI50 up to about 1.1 µM and inactive = higher.
Key:
Experiment in all cases: NCI-60 cell line screen, 48 h
U-251 = system: U-251
786-0 = system: 786-0
ACHN = system: ACHN
RPMI-8226 = system: RPMI-8226
M14 = system: M14
OVCAR-4 = system: OVCAR-4
HT-29 = system: HT-29
M19-MEL = system: M19-MEL
SNB-19 = system: SNB-19
HOP-92 = system: HOP-92
KM12 = system: KM12
NCI-H23 = system: NCI-H23
UACC-257 = system: UACC-257
SNB-78 = system: SNB-78
UACC-62 = system: UACC-62
HOP-62 = system: HOP-62
SF-268 = system: SF-268
SK-OV-3 = system: SK-OV-3
NCI-H460 = system: NCI-H460
UO-31 = system: UO-31
SK-MEL-2 = system: SK-MEL-2
LXFL 529 = system: LXFL 529
MOLT-4 = system: MOLT-4
IGROV-1 = system: IGROV-1
SR = system: SR
KM-20L2 = system: KM-20L2
SF-295 = system: SF-295
HL-60 = system: HL-60
K562 = system: K562
COLO 205 = system: COLO 205
A498 = system: A498
OVCAR-3 = system: OVCAR-3
SK-MEL-28 = system: SK-MEL-28
NCI-H522 = system: NCI-H522
RXF 393 = system: RXF 393
OVCAR-5 = system: OVCAR-5
DMS-114 = system: DMS-114
SNB-75 = system: SNB-75
A549 = system: A549
DMS-273 = system: DMS-273
LOX IMVI = system: LOX IMVI
SK-MEL-5 = system: SK-MEL-5
NCI-H226 = system: NCI-H226
HCT-116 = system: HCT-116
CAKI-1 = system: CAKI-1
Malme-3M = system: Malme-3M
OVCAR-8 = system: OVCAR-8
CCRF-CEM = system: CCRF-CEM
HCT-15 = system: HCT-15
SW-620 = system: SW-620
SN12C = system: SN12C
TK-10 = system: TK-10
SF-539 = system: SF-539
EKVX = system: EKVX
HCC 2998 = system: HCC 2998

SMILES: [N-]=[N+]=NC1(c2ccccc2)C(=O)c2cccc3c2N(CCC3)C1=O (configuration not stated)
- GI50 (U-251): 72.3 µM (inactive)
- GI50 (786-0): > 100 µM (inactive)
- GI50 (ACHN): 54.1 µM (inactive)
- GI50 (RPMI-8226): 27.7 µM (inactive)
- GI50 (M14): 36.9 µM (inactive)
- GI50 (OVCAR-4): 55.8 µM (inactive)
- GI50 (HT-29): 47.4 µM (inactive)
- GI50 (M19-MEL): 60.7 µM (inactive)
- GI50 (SNB-19): 97.5 µM (inactive)
- GI50 (HOP-92): 33.6 µM (inactive)
- GI50 (KM12): 43.4 µM (inactive)
- GI50 (NCI-H23): 49.7 µM (inactive)
- GI50 (UACC-257): 32.3 µM (inactive)
- GI50 (SNB-78): 45.1 µM (inactive)
- GI50 (UACC-62): 92.7 µM (inactive)
- GI50 (HOP-62): > 100 µM (inactive)
- GI50 (SF-268): 94.2 µM (inactive)
- GI50 (SK-OV-3): 92.9 µM (inactive)
- GI50 (NCI-H460): 92.3 µM (inactive)
- GI50 (UO-31): 18.1 µM (inactive)
- GI50 (SK-MEL-2): > 100 µM (inactive)
- GI50 (LXFL 529): 56.9 µM (inactive)
- GI50 (MOLT-4): 31.8 µM (inactive)
- GI50 (IGROV-1): 84.9 µM (inactive)
- GI50 (SR): 36 µM (inactive)
- GI50 (KM-20L2): > 100 µM (inactive)
- GI50 (SF-295): 34.5 µM (inactive)
- GI50 (HL-60): 21.4 µM (inactive)
- GI50 (K562): 27.7 µM (inactive)
- GI50 (COLO 205): 88.3 µM (inactive)
- GI50 (A498): 54.6 µM (inactive)
- GI50 (OVCAR-3): 29.9 µM (inactive)
- GI50 (SK-MEL-28): > 100 µM (inactive)
- GI50 (NCI-H522): 27 µM (inactive)
- GI50 (RXF 393): > 100 µM (inactive)
- GI50 (OVCAR-5): > 100 µM (inactive)
- GI50 (DMS-114): 44.5 µM (inactive)
- GI50 (SNB-75): 31.8 µM (inactive)

SMILES: CS/C(=N\c1ccccc1)N(c1ccccc1)c1nc(=[N+](C)C)ss1.[O-][Cl+3]([O-])([O-])[O-]
- GI50 (U-251): 2.34 µM (inactive)
- GI50 (786-0): 5.66 µM (inactive)
- GI50 (ACHN): 5.42 µM (inactive)
- GI50 (RPMI-8226): 0.22 µM (active)
- GI50 (M14): 1.13 µM (inactive)
- GI50 (A549): 14.5 µM (inactive)
- GI50 (OVCAR-4): 9.46 µM (inactive)
- GI50 (DMS-273): 0.166 µM (active)
- GI50 (HT-29): 0.034 µM (active)
- GI50 (M19-MEL): 0.0877 µM (active)
- GI50 (LOX IMVI): 3.15 µM (inactive)
- GI50 (SK-MEL-5): 1.41 µM (inactive)
- GI50 (SNB-19): 2.22 µM (inactive)
- GI50 (HOP-92): 2.79 µM (inactive)
- GI50 (KM12): 2.65 µM (inactive)
- GI50 (NCI-H23): 4.48 µM (inactive)
- GI50 (NCI-H226): 10 µM (inactive)
- GI50 (UACC-257): 2.05 µM (inactive)
- GI50 (SNB-78): 5.06 µM (inactive)
- GI50 (UACC-62): 0.0441 µM (active)
- GI50 (HCT-116): 2.56 µM (inactive)
- GI50 (HOP-62): 13.9 µM (inactive)
- GI50 (SF-268): 5.13 µM (inactive)
- GI50 (SK-OV-3): 23.9 µM (inactive)
- GI50 (NCI-H460): 0.0338 µM (active)
- GI50 (CAKI-1): 3.48 µM (inactive)
- GI50 (UO-31): 15.1 µM (inactive)
- GI50 (SK-MEL-2): 2.01 µM (inactive)
- GI50 (MOLT-4): 1.5 µM (inactive)
- GI50 (Malme-3M): 2.79 µM (inactive)
- GI50 (OVCAR-8): 2.44 µM (inactive)
- GI50 (CCRF-CEM): 0.508 µM (active)
- GI50 (IGROV-1): 1.22 µM (inactive)
- GI50 (HCT-15): 2.26 µM
- GI50 (SR): 2.16 µM (inactive)
- GI50 (SW-620): 1.36 µM (inactive)
- GI50 (SN12C): 3.2 µM (inactive)
- GI50 (KM-20L2): 1.06 µM (active)
- GI50 (SF-295): 12.5 µM (inactive)
- GI50 (HL-60): 0.927 µM (active)
- GI50 (TK-10): 14.5 µM (inactive)
- GI50 (K562): 0.27 µM (active)
- GI50 (SF-539): 4.15 µM (inactive)
- GI50 (EKVX): 15.3 µM (inactive)
- GI50 (COLO 205): 0.0647 µM (active)
- GI50 (HCC 2998): 5.35 µM (inactive)
- GI50 (A498): 12.4 µM (inactive)
- GI50 (OVCAR-3): 1.66 µM (inactive)
- GI50 (SK-MEL-28): 1.14 µM (inactive)
- GI50 (NCI-H522): 0.353 µM (active)
- GI50 (RXF 393): 4.13 µM (inactive)
- GI50 (OVCAR-5): 15.3 µM (inactive)
- GI50 (DMS-114): 0.0486 µM (active)
- GI50 (SNB-75): 4.71 µM (inactive)

From ChEMBL document CHEMBL1201862, “PubChem BioAssay data set” (2004)
